Structures are written as SMILES.

Common to all, as to assay type: biochemical
Test [1] has as its target T1, CcbF (Streptomyces caelestis, UniProt E9JES7).
T1 construct: recombinant celesticetin biosynthetic protein; construct not described in main text
T1 sequence (E9JES7 1-416): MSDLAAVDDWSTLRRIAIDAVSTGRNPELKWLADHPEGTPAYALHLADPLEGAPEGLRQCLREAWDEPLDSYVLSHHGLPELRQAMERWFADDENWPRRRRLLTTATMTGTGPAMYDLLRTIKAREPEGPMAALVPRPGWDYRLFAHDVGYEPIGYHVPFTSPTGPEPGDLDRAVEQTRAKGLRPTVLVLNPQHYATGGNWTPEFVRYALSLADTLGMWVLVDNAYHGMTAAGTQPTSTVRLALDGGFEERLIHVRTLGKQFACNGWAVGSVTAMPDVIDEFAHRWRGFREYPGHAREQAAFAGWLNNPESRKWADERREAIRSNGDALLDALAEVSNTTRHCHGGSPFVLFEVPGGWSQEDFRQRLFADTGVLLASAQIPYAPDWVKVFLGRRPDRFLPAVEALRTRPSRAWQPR
The test can be described thus: LC-MS, in vitro cascade with Ccb5 with or without Ccb4. The following applies: PLP-dependent; coupled with Ccb5.

The target of test [2] is T1, CcbF. As to the kind of experiment: LC-MS, in vitro cascade with Ccb5 and Ccb4. The following applies: PLP-dependent; coupled with Ccb5 and Ccb4 to intermediate 45.
The target in test [3] is T2, Ccb2 (Streptomyces caelestis, UniProt E9JET8).
T2 construct: recombinant, heterologously produced in and purified from E. coli; 548 residues
T2 sequence (E9JET8 1-548): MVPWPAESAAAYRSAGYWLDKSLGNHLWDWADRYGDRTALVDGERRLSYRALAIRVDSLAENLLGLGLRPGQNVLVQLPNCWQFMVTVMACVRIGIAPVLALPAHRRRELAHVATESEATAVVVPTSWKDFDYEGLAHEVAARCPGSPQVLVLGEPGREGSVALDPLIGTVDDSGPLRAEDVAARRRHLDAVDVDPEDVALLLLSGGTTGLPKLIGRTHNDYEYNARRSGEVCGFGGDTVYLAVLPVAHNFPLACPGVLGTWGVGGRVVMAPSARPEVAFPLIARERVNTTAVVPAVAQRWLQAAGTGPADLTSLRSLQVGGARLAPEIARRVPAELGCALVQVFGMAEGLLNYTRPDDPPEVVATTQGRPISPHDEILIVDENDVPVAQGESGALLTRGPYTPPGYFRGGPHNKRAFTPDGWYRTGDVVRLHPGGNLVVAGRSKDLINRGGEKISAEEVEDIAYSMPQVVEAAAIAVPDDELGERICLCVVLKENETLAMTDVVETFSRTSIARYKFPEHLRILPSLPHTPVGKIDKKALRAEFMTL
The test can be described thus: LC-MS detection of acyl-AMP conjugate. The following applies: ATP.

In the case of `CCC[C@H]1CN[C@H](C(=O)N[C@@H]([C@H]2O[C@H](SC[C@H](N)C(=O)O)[C@H](O)[C@@H](O)[C@H]2O)[C@@H](C)O)C1` [1a, lincomycin intermediate 1a], the “LC-MS, in vitro cascade with Ccb5 with or without Ccb4” value in test [1] was “Lincomycin intermediates 1a and 2a processed by celesticetin biosynthetic proteins”. In the case of `CCC[C@@H]1C[C@@H](C(=O)N[C@@H]([C@H]2O[C@H](SC[C@H](N)C(=O)O)[C@H](O)[C@@H](O)[C@H]2O)[C@@H](C)O)N(C)C1` [2a, lincomycin intermediate 2a], in test [2], the “LC-MS, in vitro cascade with Ccb5 and Ccb4” value is “in vitro processing of lincomycin intermediate 2a by the celesticetin biosynthetic proteins CcbF, Ccb5, and Ccb4”. Regarding `O=C(O)c1ccccc1` [compound 6, benzoic acid], the “LC-MS detection of acyl-AMP conjugate” value in test [3] was “We detected products”.

Values taken from PMC5416915, “Elucidation of salicylate attachment in celesticetin biosynthesis opens the door to create a library of more efficient hybrid lincosamide antibiotics” (Chemical Science, 2017).
